“Also recorded” adds a separate entry of the source.
What was measured:
[1] = system: mutants rms1 (line M3T-884 from wild pea WT Térèse); test: Comparison of GR24, molecule ABC and sorgolactone by local application onto buds at node 4; format: in vivo; conditions: mutant rms1; 100 nM and 500 nM, 10 μl per bud; nine days after the treatment; FIG. 3
Procedure: A second experiment is carried out on mutants rms1 (line M3T-884 from wild pea WT Térèse) in order to compare on these mutants the effect of synthetic strigolactone GR24, of a synthetic molecule ABC from GR24, without any cycle D characteristic of strigolactone, and Sorgolactone, a natural strigolactone.
The plants used are obtained in the same manner as for the plants used in the first experiment.
The solution containing synthetic strigolactone GR24 at 0 nM, 100 nM and 500 nM (4% PEG 1450, 10% ethanol) is applied with the help of a micropipette onto the buds at the node 4 (N4), at the rate of 10 μl per bud.
(§1) The buds and/or ramifications at the first two plant nodes N1 and N2 are cut at the time of the treatment.
The size of the buds at the upper nodes (node N4) is measured nine days after the treatment. The results of the bud growth are illustrated in the chart in FIG. 3.

[2] = system: mutants rms1 (line M3T-884 from wild pea WT Térèse); test: Local application of strigolactone onto axillary buds at node 4, bud growth; format: in vivo; conditions: mutant rms1; 100 nM, 10 μl per bud; eight days after the treatment; FIG. 2
Procedure: (§2) A first experiment is carried out simultaneously on mutants rms1 (line M3T-884 from wild pea WT Térèse) and rms4 (line M3T-946 from wild pea WT Térèse).
(§3) 9 seeds are used for each treatment; they are sowed in pots (3 plants per pot) in soil mixed to clay balls. The seedling is carried out under glass with a light period of 16 h light/8 h night.
(§4) The treatment is carried out 10 days after the seedling (Stage with 4 leaves).
(§5) A solution containing synthetic strigolactone GR24 dissolved in acetone at 0 nM and 100 nM (4% PEG 1450, 25% ethanol, 5^0/00 acetone) is applied with the help of a micropipette onto the buds at the node 4 (N4), at the rate of 10 μl per bud.
(§6) The buds and/or ramifications at the first two plant nodes N1 and N2 are cut for favoring the start of the buds at upper nodes.
(§7) The untreated plants correspond to the plants the buds and/or ramifications of which at nodes 1 and 2 have been cut but which have not received any treatment. The control “0 nM” corresponds to the plants treated with the same solution as for the treatment “500 nM” but without any strigolactones.

[3] = system: mutants rms4 (line M3T-946 from wild pea WT Térèse); test: as above; format: in vivo; conditions: mutant rms4; 100 nM, 10 μl per bud; eight days after the treatment; FIG. 2
Procedure: as §2, §3, §4, §5, §6, §7

[4] = system: wild peas WT Térèse; test: Local application onto buds at node 2 of wild pea; format: in vivo; conditions: 500 nM, 10 μl per bud, eight days after the treatment, FIG. 4
Procedure: To this end, a third experiment is carried out on wild peas WT Térèse. The plants used are obtained in a identical manner as for the plants used in the first experiment.
The treatment is carried out 10 days after the seedling (stage with 4 to 5 leaves).
A solution containing synthetic strigolactone GR24 at 0 nM and 500 nM (4% PEG, 10% ethanol) is applied with the help of a micropipette onto the buds at the node 2 (N2), at the rate of 10 μl per bud.
The buds and/or ramifications at the first plant node N1 are cut at the time of the treatment.
The bud size at the node N2 is measured eight days after the treatment, the results being plotted in the chart in FIG. 4.

[5] = system: mutants rms1 (line WL5237 from wild pea WT Parvus); test: Local application onto buds at node 3 of plants of different ages; format: in vivo; conditions: 1000 nM applied on two days, 9 to 13 day-old plants, buds 0.2 to 1 mm at first treatment, three and seven days after, FIG. 5A
Procedure: A first experiment is carried out on mutants rms1 (line WL5237 from wild pea WT Parvus) in order to compare the effect of synthetic strigolactones GR24 on the size of the treated buds at the time of the treatment.
In this experiment, 20 seeds are used for each treatment, which are sowed in pots (2 plants per pot with a diameter of 15 cm) in a soil mixed to clay balls. The seedling is carried out under glass with a natural light and with an extension of the light period of 18 h light/6 h night by means of incandescent bulbs (60 W).
On the first day of treatment, a solution containing synthetic strigolactone GR24 at 0 nM and 1000 nM (4% PEG 1450, 10% ethanol) is applied with the help of a micropipette onto the buds at the node 3 (N3), at the rate of 10 μl per bud.
On the second day of treatment, a solution containing synthetic strigolactone GR24 at 0 nM and 1000 nM (4% PEG 1450, 10% ethanol) is applied with the help of a micropipette onto the same buds, at the rate of 10 μl per bud.
as §1
The first treatment is carried out on 9, 10, 11, 12 and 13 day-old plants (the seedling were spread out over five days).
The bud size at the node N3 is measured the day of the first treatment (J0) and three and seven days afterwards. The obtained results are illustrated in the charts in FIG. 5A.

[6] = system: mutants rms1 (line M3T-988 from WT Térèse); test: Injection into the stem above node N3, size of bud at N5 (long-distance, dose-response); format: in vivo, pea; conditions: rms1 M3T-988; injected 1, 10, 100, 500 nM; eight days after the treatment; FIG. 6
Procedure: To this end, an experiment is carried out on mutants rms1 (line M3T-988 from WT Térèse) obtained in the same manner as for the mutants used in the preceding experiments.
The plants are treated by injecting the solution into the stem above the node N3. More precisely, a cotton thread is introduced into the plant stem with the help of needle and is dipped into the solution to be tested. The GR24 solution used (0 nM, 1 nM, 10 nM, 100 nM and 500 nM) were prepared by diluting in water GR24 solutions kept in acetone at different concentrations so that they have the same volume of acetone (10 μl of acetone in 20 ml of water).
as §1
The “untreated” plants correspond to control plants the ramifications N1 and N2 of which have been cut, but which have not received any injection.
The size of the buds at the node situated a distance above the injection zone (N5) is measured eight days after the treatment.

[7] = system: mutants rms1 (line WL5237 from WT Térèse); test: Decapitation after treatment of buds at node 3; format: in vivo, pea; conditions: 1000 nM, two applications, decapitated nine days after the treatment, measured seven days after decapitation, FIG. 7B
Procedure: A first experiment is carried out simultaneously on wild peas (line WT Parvus) and mutants rms1 (line WL5237 from […]). In this experiment, 18 seeds are used for each treatment, which are sowed in pots (2 plants per pot with a diameter of 15 cm) in a soil mixed with sand. The seedling is carried out under glass with natural light and with an extension of the light period of 18 h light/6 h night be means of incandescent bulbs (60 W).
In a first stage, the plants are treated by two successive applications, separated by a 24 hour interval, of a solution (2% PEG 3550, 50% ethanol) containing synthetic strigolactone GR24 at 0 nM or 1000 nM. The solution is applied with the help of a micropipette onto the buds at the node 3 (N3), at the rate of 10 μl per bud.
as §1
The size of the treated buds is measured seven days after the treatment. The chart in FIG. 7A illustrates the results obtained with the buds at the N3.
In a second stage, a first half of the treated mutant plants rms1 are decapitated just above the node 3, nine days after the treatment, the second half is left intact. The buds and/or ramifications at node 3 of the treated plants at 0 nM (which have not been repressed) are cut.
The bud size is measured seven days after the decapitation. […]

[8] = system: wild pea (line WT Térèse) and mutant pea (line M3T-988 ccd8/rms1 from WT Térèse); test: Application through the roots in hydroponic solution, internodal length and ramification length; format: in vivo
Procedure: To this end, an experiment is carried out in a hydroponic solution in order to bring GR24 into the hydroponic solution through the roots.
In this experiment, wild pea seeds (line WT Térèse) and mutant pea seeds (line M3T-988 ccd8/rms1 from WT Térèse) are first sowed in sand. Eight days later, the resulting plants are brought into the hydroponic system in which the roots are dipped in the nutritive solution. Four days later, a GR24 solution (diastereo isomer no 1) is added to 1 μM in the 47 liters of nutritive solution (4.7 ml GR24 at 10 mM). In this experiment, the plants reach the stage with 3-4 nodes.
Then, the cotyledonal ramifications are removed. The ramifications at the nodes N1 and N2 are kept.
The observation is carried out seven days later after addition of GR24 in the solution.
FIG. 10 represents the internodal length measured 19 days later after the germination on treated and untreated wild plants on one hand and treated and untreated mutant plants on the other hand.
FIG. 11 represents the ramification length (ramifications 3 at node N4) measured 19 days later on treated and untreated wild plants on one hand and treated and untreated mutant plants on the other hand. The ramifications at nodes N1 and N2 have already started at the time of the addition of GR24.

| SMILES | bud growth at node N4, comparison of effects [1] | bud growth at N4 [2] | bud growth at N4 [3] | bud size at the node N2 [4] | bud size at the node N3, sensitivity of buds of different ages [5] | concentration from which injection above N3 represses the growth of the bud at N5 [6] [nM] | bud size at N3 after decapitation of plants with buds first inhibited [7] | internodal length, from internode N4-N5 ([8]; 1 μM in hydroponic solution through the roots, wild and rms1 mutant, 19 days after germination, FIG. 10) | ramification length / bud start ([8]; 1 μM in hydroponic solution through the roots, wild and rms1 mutant, measured 19 days later, FIG. 11) | internodal length, internodes N1-N2, N2-N3 and N3-N4 ([8]; 1 μM in hydroponic solution, internodes already developed before addition, FIG. 10) |
| --- | --- | --- | --- | --- | --- | --- | --- | --- | --- | --- |
| O=C1OC2c3ccccc3CC2/C1=C\O (stereo not drawn) [ABC] | less efficient than GR24 and sorgolactone | – | – | – | – | – | – | – | – | – |
| CC1=C[C@H](O/C=C2/C(=O)O[C@@H]3C4=C(CCC[C@@H]4C)C[C@H]23)OC1=O [sorgolactone, Sorgolactone] | comparable effects | – | – | – | – | – | – | – | – | – |
| CC1=CC(O/C=C2/C(=O)OC3c4ccccc4CC23)OC1=O (stereo not drawn) [GR24] | comparable effects | strongly repressed; also recorded: inhibit the growth of said treated buds | not repressed in a significant manner | has also an action on the growth of the buds | all sensitive to the treatment | ≥ 10 | able to start again when the plant is decapitated | has an effect only from the internode N4-N5 | induces a reduction of the ramification length | has no action |
